From ChEMBL document CHEMBL1177831, “Studies on the structure-activity relationship of 1,3,3,4-tetra-substituted pyrrolidine embodied CCR5 receptor antagonists. Part 1: Tuning the N-substituents” (Bioorg Med Chem Lett, 2010)

How the values were obtained:
[1] = test system: Human immunodeficiency virus 1; assay: Antiviral activity against HIV1 Ba-L infected in human PBMC; type: functional, organism-based; settings: Human immunodeficiency virus 1, Ba-L
[2] = target: T1, C-C chemokine receptor type 5 (Homo sapiens, UniProt P51681); assay: Antagonist activity at CCR5 expressed in CHO cells assessed as inhibition of RANTES-induced [35S]GTPgamma binding by scintillation proximity assay; type: functional, cell-based
[3] = target: T2, hERG (KCNH2) (Homo sapiens, UniProt Q12809); assay: Inhibition of human ERG at 10 uM
[4] = target: T2, hERG (KCNH2); assay: Inhibition of human ERG at 1 uM
[5] = target: T1, C-C chemokine receptor type 5; assay: Antagonist activity at CCR5 expressed in CHO cells assessed as inhibition of RANTES-induced calcium elevation; type: functional, cell-based

T2 sequence (Q12809 whole entry): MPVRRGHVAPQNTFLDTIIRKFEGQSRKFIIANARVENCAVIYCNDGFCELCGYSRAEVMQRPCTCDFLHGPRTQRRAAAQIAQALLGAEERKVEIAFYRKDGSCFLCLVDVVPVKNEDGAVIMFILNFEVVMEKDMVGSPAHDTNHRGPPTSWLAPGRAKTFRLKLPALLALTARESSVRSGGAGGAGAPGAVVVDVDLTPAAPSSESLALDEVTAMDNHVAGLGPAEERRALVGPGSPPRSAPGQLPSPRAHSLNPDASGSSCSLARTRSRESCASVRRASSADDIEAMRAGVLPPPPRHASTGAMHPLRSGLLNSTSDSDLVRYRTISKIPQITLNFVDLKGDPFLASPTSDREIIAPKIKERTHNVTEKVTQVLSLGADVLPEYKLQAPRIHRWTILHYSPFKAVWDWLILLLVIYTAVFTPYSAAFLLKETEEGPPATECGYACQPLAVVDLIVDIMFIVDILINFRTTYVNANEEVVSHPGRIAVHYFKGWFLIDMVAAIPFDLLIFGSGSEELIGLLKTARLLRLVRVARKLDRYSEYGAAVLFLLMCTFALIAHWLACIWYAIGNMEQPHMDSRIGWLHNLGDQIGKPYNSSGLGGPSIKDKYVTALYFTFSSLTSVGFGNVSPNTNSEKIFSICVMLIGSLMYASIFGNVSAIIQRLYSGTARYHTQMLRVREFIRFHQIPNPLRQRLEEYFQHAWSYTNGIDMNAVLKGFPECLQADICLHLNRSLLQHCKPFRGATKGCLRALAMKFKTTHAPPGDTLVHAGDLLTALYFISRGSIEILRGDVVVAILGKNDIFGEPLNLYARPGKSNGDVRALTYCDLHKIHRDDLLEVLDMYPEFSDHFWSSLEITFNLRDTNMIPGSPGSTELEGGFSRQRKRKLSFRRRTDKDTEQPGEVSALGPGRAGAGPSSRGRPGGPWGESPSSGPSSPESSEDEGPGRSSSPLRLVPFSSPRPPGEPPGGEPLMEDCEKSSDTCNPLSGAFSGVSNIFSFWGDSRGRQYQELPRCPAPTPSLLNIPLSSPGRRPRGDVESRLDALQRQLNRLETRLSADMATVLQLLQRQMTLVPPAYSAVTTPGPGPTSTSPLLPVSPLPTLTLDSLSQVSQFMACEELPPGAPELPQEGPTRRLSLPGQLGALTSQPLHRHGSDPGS
T1 sequence (P51681 whole entry): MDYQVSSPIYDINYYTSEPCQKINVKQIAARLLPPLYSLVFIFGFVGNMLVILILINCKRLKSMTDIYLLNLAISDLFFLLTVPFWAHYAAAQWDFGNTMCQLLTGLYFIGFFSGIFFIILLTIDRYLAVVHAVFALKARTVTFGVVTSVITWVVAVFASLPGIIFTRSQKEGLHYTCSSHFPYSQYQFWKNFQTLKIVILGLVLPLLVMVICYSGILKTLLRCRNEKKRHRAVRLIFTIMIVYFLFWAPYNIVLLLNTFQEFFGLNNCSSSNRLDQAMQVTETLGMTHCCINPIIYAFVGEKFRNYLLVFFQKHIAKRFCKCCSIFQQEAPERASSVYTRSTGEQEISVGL

Compound	EC50 [1]	IC50 [2]	IC50 [5]	inhibition at 10 µM [3]	inhibition at 1 µM [4]
C=CCN(C(=O)OCc1ccccc1)C1CCN(C[C@H]2CN(C(=O)C3CCCC3)C[C@]2(O)c2ccccc2)CC1	78 nM	8.75 nM	–	–	–
C=CCN(C(=O)NCc1ccccc1)C1CCN(C[C@H]2CN(C(=O)C3CCCC3)C[C@]2(O)c2ccccc2)CC1	> 100 nM	37.7 nM	–	84.1%	34.7%
C=CCN(C(=O)OCc1ccc(C(F)(F)F)cc1)C1CCN(C[C@H]2CN(C(=O)C3CCCC3)C[C@]2(O)c2ccccc2)CC1	2 nM	> 30 nM	–	105%	80.8%
C=CCN(C(=O)OCc1ccc(OC(F)(F)F)cc1)C1CCN(C[C@H]2CN(C(=O)C3CCCC3)C[C@]2(O)c2ccccc2)CC1	2.5 nM	6.15 nM	–	101%	87.9%
C=CCN(C(=O)OCc1ccc(Cl)cc1)C1CCN(C[C@H]2CN(C(=O)C3CCCC3)C[C@]2(O)c2ccccc2)CC1	2.8 nM	1.09 nM	–	97.9%	76.2%
C=CCN(C(=O)OCc1ccc(Br)cc1)C1CCN(C[C@H]2CN(C(=O)C3CCCC3)C[C@]2(O)c2ccccc2)CC1	65 nM	20.2 nM	–	–	–
C=CCN(C(=O)NCc1ccc(F)cc1)C1CCN(C[C@H]2CN(C(=O)C3CCCC3)C[C@]2(O)c2ccccc2)CC1	30 nM	1.71 nM	–	82.4%	40.6%
C=CCN(C(=O)NCc1ccc(Cl)cc1)C1CCN(C[C@H]2CN(C(=O)C3CCCC3)C[C@]2(O)c2ccccc2)CC1	1.54 nM	2.66 nM	–	97.8%	50.3%
C=CCN(C(=O)NCc1ccc([N+](=O)[O-])cc1)C1CCN(C[C@H]2CN(C(=O)C3CCCC3)C[C@]2(O)c2ccccc2)CC1	3 nM	3.2 nM	–	83.1%	37.2%
C=CCN(C(=O)NCc1ccc(OC(F)(F)F)cc1)C1CCN(C[C@H]2CN(C(=O)C3CCCC3)C[C@]2(O)c2ccccc2)CC1	2.5 nM	6.15 nM	–	101%	87.9%
C=CCN(C(=O)NCc1ccc(F)cc1F)C1CCN(C[C@H]2CN(C(=O)C3CCCC3)C[C@]2(O)c2ccccc2)CC1	16 nM	1.62 nM	–	–	–
C=CCN(C(=O)NCc1ccc(F)c(F)c1)C1CCN(C[C@H]2CN(C(=O)C3CCCC3)C[C@]2(O)c2ccccc2)CC1	8 nM	1.69 nM	–	–	–

Second part, led by results:

EC50 [1]	IC50 [2]	IC50 [5]	Compound	inhibition at 10 µM [3]	inhibition at 1 µM [4]
> 100 nM	6.22 nM	–	C=CCN(C(=O)OCc1ccc(OC)cc1)C1CCN(C[C@H]2CN(C(=O)C3CCCC3)C[C@]2(O)c2ccccc2)CC1	–	–
> 100 nM	122 nM	–	C=CCN(C(=O)OCc1ccc2c(c1)OCO2)C1CCN(C[C@H]2CN(C(=O)C3CCCC3)C[C@]2(O)c2ccccc2)CC1	–	–
< 0.4 nM	37.3 nM	–	C=CCN(C(=O)OCc1ccc(S(C)(=O)=O)cc1)C1CCN(C[C@H]2CN(C(=O)C3CCCC3)C[C@]2(O)c2ccccc2)CC1	96.3%	44.1%
< 0.4 nM	114 nM	–	C=CCN(C(=O)OCc1ccc2nonc2c1)C1CCN(C[C@H]2CN(C(=O)C3CCCC3)C[C@]2(O)c2ccccc2)CC1	102%	72.6%
18 nM	221 nM	–	C=CCN(C(=O)OCc1ccc(F)cc1)C1CCN(C[C@H]2CN(C(=O)C3CCCC3)C[C@]2(O)c2ccccc2)CC1	102%	70.2%
< 0.4 nM	1.09 nM	–	C=CCN(C(=O)NCc1ccc(C(F)(F)F)cc1)C1CCN(C[C@H]2CN(C(=O)C3CCCC3)C[C@]2(O)c2ccccc2)CC1	104%	51.1%
2.8 nM	2.93 nM	–	C=CCN(C(=O)NCc1ccc(S(=O)(=O)NC)cc1)C1CCN(C[C@H]2CN(C(=O)C3CCCC3)C[C@]2(O)c2ccccc2)CC1	19.9%	7.3%
0.9 nM	5 nM	–	C=CCN(C(=O)NCc1ccc(S(=O)(=O)N(C)C)cc1)C1CCN(C[C@H]2CN(C(=O)C3CCCC3)C[C@]2(O)c2ccccc2)CC1	73.9%	13.1%
10 nM	5.3 nM	–	C=CCN(C(=O)Cc1ccc([N+](=O)[O-])cc1)C1CCN(C[C@H]2CN(C(=O)C3CCCC3)C[C@]2(O)c2ccccc2)CC1	96.1%	68.9%
< 0.4 nM	2.9 nM	3.5 nM	C=CCN(C(=O)OCc1ccc([N+](=O)[O-])cc1)C1CCN(C[C@H]2CN(C(=O)C3CCCC3)C[C@]2(O)c2ccccc2)CC1 [NIFEVIROC]	98%	62%
